Measurements from patent US7582611B2, “Motilide compounds” (Pfizer Inc., priority 2005, dated 2009).
Values after ≈ are worked out from the molar mass of the structure shown. Where two headings read alike, the source gives them in different places.

Legend:
[1] = test system: Streptococcus pneumoniae ATCC 6301; assay: Evaluation of antibacterial activity (MIC, serial dilutions on 96-well microtiter plates); format: cell-based; conditions: ATCC6301, read-out: Antibacterial Activity (MIC, μg/mL)
Motilin Receptor = target: T1, Motilin Receptor (Oryctolagus cuniculus, UniProt G1T803); assay: Tissue based assay for motilin agonist potency (rabbit duodenum contractility); format: cell-based
T1 construct: strips of longitudinal smooth muscle were sliced from the segments; from tissue; host or cells: rabbit duodenum longitudinal smooth muscle strips
Method in brief: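 Longitudinal smooth-muscle strips of rabbit duodenum, mucosa removed, in oxygenated Krebs at 37 °C under 1.5 g tension; auxotonic contractions. Cumulative doses at ~2 min intervals, then 1 μM carbachol; responses minus basal tension, normalized to carbachol, fitted to R=(Rmax·C)/(EC50+C) for EC50.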

[2] = rabbit duodenum strips, contraction normalized to 1 μM carbachol, read-out: Motilin Receptor Agonist Activity (EC50)

T1 sequence (G1T803 1-400): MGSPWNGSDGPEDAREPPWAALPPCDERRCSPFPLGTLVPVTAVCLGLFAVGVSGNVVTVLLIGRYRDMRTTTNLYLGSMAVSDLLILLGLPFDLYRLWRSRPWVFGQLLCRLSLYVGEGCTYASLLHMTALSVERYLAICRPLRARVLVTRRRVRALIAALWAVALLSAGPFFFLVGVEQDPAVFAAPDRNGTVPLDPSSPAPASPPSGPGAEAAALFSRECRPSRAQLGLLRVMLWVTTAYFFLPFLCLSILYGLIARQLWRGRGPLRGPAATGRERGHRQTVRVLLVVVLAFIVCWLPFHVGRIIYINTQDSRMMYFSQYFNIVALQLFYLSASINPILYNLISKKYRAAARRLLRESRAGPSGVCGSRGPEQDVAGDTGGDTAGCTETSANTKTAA

Row | Compound | MIC [1] | EC50 (Motilin Receptor; [2]) | EC50 (Motilin Receptor)
1 | CC[C@H]1OC(=O)[C@H](C)[C@@H](O[C@H]2C[C@@](C)(OC)[C@@H](O)[C@H](C)O2)[C@H](C)[C@@H](O[C@@H]2O[C@H](C)C[C@H](N(C)C(C)C)[C@H]2O)[C@](C)(O)C[C@@H](C)[C@H](OCCCCCC(=O)NC)[C@H](C)[C@@H](O)[C@]1(C)O [Compound A-76] | 128 µg/mL (≈ 144 µM) | 150 nM | 
2 | CC[C@H]1OC(=O)[C@H](C)[C@@H](O[C@H]2C[C@@](C)(OC)[C@@H](O)[C@H](C)O2)[C@H](C)[C@@H](O[C@@H]2O[C@H](C)C[C@H](N(C)C(C)C)[C@H]2O)[C@](C)(O)C[C@@H](C)[C@H](OCC(=O)Nc2ccncn2)[C@H](C)[C@@H](O)[C@]1(C)O [Compound A-77] | > 128 µg/mL | 25 nM | 
3 | CC[C@H]1OC(=O)[C@H](C)[C@@H](O[C@H]2C[C@@](C)(OC)[C@@H](O)[C@H](C)O2)[C@H](C)[C@@H](O[C@@H]2O[C@H](C)C[C@H](N(C)C)[C@H]2O)[C@](C)(O)C[C@@H](C)C(=O)[C@H](C)[C@@H](O)[C@]1(C)O [Erythromycin A, reference compound] | 0.0025 µg/mL (≈ 0.00341 µM) |  | 1200 nM
4 | CC[C@H]1OC(=O)[C@H](C)[C@@H](O[C@H]2C[C@@](C)(OC)[C@@H](O)[C@H](C)O2)[C@H](C)[C@@H](O[C@@H]2O[C@H](C)C[C@H](N(C)C(C)C)[C@H]2O)[C@@]2(C)CC(C)=C(O2)[C@H](C)C(=O)[C@]1(C)OC [GM-611, reference compound] | 128 µg/mL (≈ 169 µM) | 11 nM | 
5 | CC[C@@H](O)[C@@](C)(O)[C@@H]1OC(=O)[C@@H](C)[C@H](C[C@H]2C[C@@](C)(OC)[C@@H](O)[C@H](C)O2)[C@H](C)[C@@H](OC2O[C@H](C)C[C@H](N(C)C(C)C)[C@H]2O)[C@@]2(C)CC(C)=C(O2)[C@@H]1C (stereo partly shown) [KC-11458, reference compound] | > 128 µg/mL | 45 nM | 
